“Also recorded” adds a separate entry of the source.
Columns and labels:
[1] = tested on: blood cells; CFTR dependent ion channels (SDAC); test: Hemolysis test of blood cells in 155 mM KCl medium with sDIDS activation of CFTR dependent ion channels; format: cell-based, human
Source text: This embodiment of the invention is based on the idea of evoking a lysis of the non-defective blood cells through activation of certain ion channels of the non-defective blood cells, where through anions flow into the non defective cell, for example: Iodide (I—), bromide (Br—), chloride (Cl—), fluoride (F—), gluconate (dextronic acid-anion), rhodanate (SCN—), and taurine. In defective blood cells these CFTR dependent ion channels don't exist or are not activatable. […] Then no positive pressure can build up in the cell; the blood cells with defective CFTR, especially the blood cells of CF Patients are not subject to lysis.
Since this CFTR dependent ion channel in non-defective blood cells allows the passage of anions such as for example: iodide, bromide, chloride, fluoride, gluconate and rhodanate as well as taurine, the differentiation between defective and non-defective blood cells can also take place in 155 mm solutions that contain iodide, bromide, fluoride, gluconate, rhodanate or taurine.
This embodiment is carried out analogously to the example mentioned above, only the blood cells are resuspended in a solution consisting of 155 mM KCl, 10 mM HEPES-Puffer (pH 7.4) and 100 μM sDIDS. This solution is incubated for 60 min under agitation at 37° C. and afterwards the released hemoglobin in the solution is determined.
Through the selected conditions of the preferred embodiment of the method according to the invention, chloride ions flow into non-defective blood cells via the anion channel activated by sDIDS into the blood cell. That leads to the accumulation of chloride ions in the blood cell and the water influx associated ion influx leads the good blood cell to burst. The hemolysis can be detected photometrically. This procedure may also be carried out with 10 mM HEPES-buffered solution (pH 7,4), that contains 155 mM iodide, bromide, fluoride, gluconate, or rhodanate as anions.

[2] = aqueous solution, room temperature; cited from earlier work
[3] = tested on: blood cells (reticulocytes and young erythrocytes); CFTR dependent ATP release; test: Hemolysis test of blood cells in 155 mM KCl medium with Gd3+ blockade of CFTR dependent volume regulation; format: cell-based, human
Source text: A non-defective cell is able to control and regulate its cell volume by interlinking mechanisms during the influx and the efflux of ions and water under physiological conditions. In non-defective blood cells, after application of a 155 mm potassium chloride medium chloride flows into the cell, inter alia through the CFTR. In one embodiment, the invention is based on the idea to inhibit the regulatory volume decrease (RVD) by influencing—for example by blockade—the CFTR-dependent ATP-transporting channels expressed in the cytomembrane. […] This is especially the case with CF blood cells, which due to the CFTR defect have no influx of chloride ions and whose RVD is independent of CFTR. Therefore, no positive pressure can build up in the cell; the blood cells with defective ion channels, especially the blood cells of CF patients undergo no lysis.
In patients suffering from mucoviscidosis with a homozygous ΔF508 mutation, the CFTR is not in the cytomembrane. With heterozygous mutations and other mutations than ΔF508, small quantities of functional CFTR can be in the membrane that transport chloride and are involved in volume regulation. The quantity of the functional CFTR molecules in the cytomembrane is inversely proportional to the severity of the illness. […] The contribution of the CFTR dependent RVD to the entire RVD is proportional to the quantity of the functional CFTR molecules within the membrane. […] Because the quantity of the functional CFTR molecules in the cytomembrane is inversely proportional to the severity of the illness in mucoviscodosis patients, the degree of the hemolysis after blockade of the CFTR dependent RVD is a measurement for the severity of the illness.
In accordance with the invention, first blood cells are extracted from whole blood by centrifugation. […] This solution is incubated for 60 min under agitation at 37° C. and afterwards the released hemoglobin in the solution is determined. […] The hemolysis is determined by visual examination and is quantified by absorption measurement with a wave length of 546 nm. […]

[4] = tested on: Calu-3 cells (human respiratory tract epithelium cell line); test: Patch-clamp, whole-cell configuration; format: cell-based; settings: Calu-3, whole-cell, -90 to +10 mV
Experimental: During the experimental development of the test, it is shown that the observed reaction of the red blood cells can not be explained by the mechanisms known in the literature. The blood cell reactions are only explainable by the existence of a channel proteins, which is not yet known in literature.
In the whole-cell-configuration of the patch-clamp technology, the transmembrane current of a cell is measured with a pre-determined potential. The endocellular potential was maintained for 0.5 seconds in each case at values between −90 to +10 mV and increased in 10 mV intervals (8.d). The currents arising in a cell with this voltage range are presented in 8a–8c. In 8a, the base current of an untreated cell is shown (control). Through treatment with sDIDS, the conductivity of the cytomembrane of this cell increases together with the current (8b). After sDIDS was removed from the experiment (post control), the conductivity of the cytomembrane of this cell decreases, together with the current (8c). In 8e, the current is plotted against the applied potential, so that the slope of the curve is a measurement of the conductivity.

Nc1ccc(CCc2ccc(N=C=S)cc2S(=O)(=O)O)c(S(=O)(=O)[O-])c1.[Na+] [4-amino-4′isothiocyanato-dihydrostilbene-2,2′-disulfonic acid, Na^+-salt]
behaviour compared with sDIDS [1]: behaves like sDIDS

O=S(=O)([O-])c1cc(N=C=S)ccc1C=Cc1ccc(N=C=S)cc1S(=O)(=O)[O-].[Na+].[Na+] [DIDS, 4,4′-diisothiocyanato-stilbene-2,2′-disulfonic acid, sodium salt]
time of hydrolysis to 4-amino-4′-isothiocyanatostilbene-2,2′-disulfonic acid [2]: within a week

[Cl][Gd]([Cl])[Cl] [Gd^3+, gadolinium chloride]
degree of hemolysis after Gd^3+ application ([3]; blood of 22 CF patients): only a slight increase | degree of hemolysis after addition of Gd^3+ ([3]; blood of 87 healthy volunteers): unambiguous increase | degree of hemolysis after addition of Gd^3+ ([3]; umbilical cord blood of 59 newborns): unambiguous increase

CC(=O)Nc1ccc(C=Cc2ccc(N=C=S)cc2S(=O)(=O)O)c(S(=O)(=O)O)c1 [SITS, 4-acetamido-4′-isothiocyanato-stilbene-2,2′-disulfonic acid]
time of hydrolysis to 4-amino-4′-isothiocyanatostilbene-2,2′-disulfonic acid [2]: within a week

Nc1ccc(C=Cc2ccc(N=C=S)cc2S(=O)(=O)O)c(S(=O)(=O)O)c1 [sDIDS, 4-amino-4′-isothiocyanato-stilbene-2,2′-disulfonic acid]
activation of anion conductivity (iodide, bromide, chloride, fluoride, gluconate, rhodanate, taurine) ([1]; blood cells of CF patients): no conductivity | degree of hemolysis after sDIDS application ([1]; blood of 48 CF patients): only a slight increase | degree of hemolysis after addition of sDIDS ([1]; blood of 148 healthy volunteers): unambiguous increase | degree of hemolysis after addition of sDIDS ([1]; umbilical cord blood of 82 newborns): unambiguous increase | conductivity of the cytomembrane / current after removal (post control) [4]: decreases | conductivity of the cytomembrane / current during treatment [4]: reversible activatibility of a conductivity; also recorded: increases
